Among the data in ChEMBL document CHEMBL1126213, “Synthesis and biological activity of a 5,6-substituted teleocidin” (Bioorg Med Chem Lett, 1992) are IC50 values, retold here.

The experiment deals with Protein kinase C, PKC; classical/novel. The experiment can be described thus: Binding to PKC in 3[H]-[…] assay. Type of experiment: protein assay.

For orientation: IC50 means the point on the concentration scale where inhibition reaches its midpoint. Read a low IC50 as greater potency. Turning to `CC(C)[C@@H]1Nc2c3c(cc4[nH]cc(c24)C[C@@H](CO)NC1=O)C(C)(C)CCC3(C)C`, the IC50 is 400 nM.
